{
  "source": "paper PMC6861653",
  "about": "(Chembiochem : a European journal of chemical biology, 2019)",
  "assay_type_in_all_cases": "cell-based",
  "key": {"[1]": {"biological_target": "T1, GLP-1R (Homo sapiens, UniProt P43220)", "T1 sequence (P43220 24-463, species assumed)": "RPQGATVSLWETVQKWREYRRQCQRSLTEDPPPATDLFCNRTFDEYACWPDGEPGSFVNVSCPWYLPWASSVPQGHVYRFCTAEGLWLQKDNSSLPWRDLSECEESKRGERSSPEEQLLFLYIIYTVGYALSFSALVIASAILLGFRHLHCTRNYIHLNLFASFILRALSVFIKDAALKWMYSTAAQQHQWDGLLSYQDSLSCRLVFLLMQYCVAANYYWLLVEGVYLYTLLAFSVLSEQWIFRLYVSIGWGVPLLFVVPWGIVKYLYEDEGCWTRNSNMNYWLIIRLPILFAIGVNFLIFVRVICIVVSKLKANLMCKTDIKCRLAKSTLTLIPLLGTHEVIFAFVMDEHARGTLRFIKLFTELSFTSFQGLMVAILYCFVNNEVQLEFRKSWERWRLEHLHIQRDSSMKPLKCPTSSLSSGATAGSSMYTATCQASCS", "test": "Signaling bias by Black-Leff operational model"}, "[2]": {"biological_target": "T1, GLP-1R", "settings": "HEK293 GloSensor cells transiently expressing GLP-1R"}, "[3]": {"biological_target": "GLP-1R-RLuc8 / GFP^2-β-arrestin-1 (Homo sapiens, UniProt P43220)", "sequence (P43220 24-463)": "as the sequence (P43220 24-463, species assumed) above", "sequence (P49407 whole entry partner)": "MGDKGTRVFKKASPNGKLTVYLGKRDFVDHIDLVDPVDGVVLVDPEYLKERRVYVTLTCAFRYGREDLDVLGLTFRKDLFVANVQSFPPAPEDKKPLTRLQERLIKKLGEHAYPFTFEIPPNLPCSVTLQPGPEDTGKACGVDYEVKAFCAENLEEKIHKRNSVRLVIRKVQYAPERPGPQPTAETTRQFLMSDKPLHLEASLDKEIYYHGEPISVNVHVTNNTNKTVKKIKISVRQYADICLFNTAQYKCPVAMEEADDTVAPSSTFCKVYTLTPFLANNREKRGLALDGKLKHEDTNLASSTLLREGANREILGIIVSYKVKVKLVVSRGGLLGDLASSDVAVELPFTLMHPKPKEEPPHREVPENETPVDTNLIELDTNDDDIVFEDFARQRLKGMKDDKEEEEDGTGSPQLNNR", "test": "β-arrestin-1 recruitment to GLP-1R, BRET assay in HEK293FT cells"}, "[4]": {"biological_target": "GLP-1R-RLuc8 / GFP^2-β-arrestin-2(R393E, R395E) (Homo sapiens, UniProt P43220)", "sequence (P43220 24-463, stated change not applied)": "as the sequence (P43220 24-463, species assumed) above", "test": "β-arrestin-2 recruitment to GLP-1R, BRET assay in HEK293FT cells"}},
  "note": "*1 amine or outer side, *2 acyl side, *3 side chain or, on linkers, in order; H or OH if unused. Where a SMILES comes first, the peptide text is derived from it. [ ]: non-standard residue; d: D form. X1 = O=C([C@H]1CCC[C@@H]1N[*:1])[*:2]",
  "data": [
    {"smiles": "CC[C@H](C)[C@H](NC(=O)[C@H](Cc1ccccc1)NC(=O)[C@H]1CCC[C@@H]1NC(=O)[C@H](CCCCN)NC(=O)[C@H](C)NC(=O)[C@H](C)NC(=O)[C@H]1CCC[C@@H]1NC(=O)CNC(=O)[C@H](CCC(=O)O)NC(=O)[C@H](CC(C)C)NC(=O)[C@H]1CCC[C@@H]1NC(=O)[C@H](CO)NC(=O)[C@H](CO)NC(=O)[C@@H](NC(=O)[C@H](CC(=O)O)NC(=O)[C@H](CO)NC(=O)[C@@H](NC(=O)[C@H](Cc1ccccc1)NC(=O)[C@@H](NC(=O)CNC(=O)[C@H](CCC(=O)O)NC(=O)[C@H](C)NC(=O)[C@@H](N)Cc1c[nH]cn1)[C@@H](C)O)[C@@H](C)O)C(C)C)C(=O)N[C@@H](C)C(=O)N[C@H]1CCC[C@@H]1C(=O)N[C@@H](CC(C)C)C(=O)N[C@H](C(=O)N[C@@H](CCCCN)C(=O)N[C@H]1CCC[C@@H]1C(=O)N[C@@H](CCCNC(=N)N)C(N)=O)C(C)C", "note": "[2b] (H-HAEGTFTSDVSS[X1]LEG[X1]AAK[X1]FIA[X1]LVK[X1]R-NH2; N-terminus assumed)", "values": [
      {"measurement": "Signal bias relative to GLP-1, in words", "setting": "[1]", "result": "smaller bias toward β-arrestin-2 vs. cAMP production"}
    ]},
    {"smiles": "CC[C@H](C)[C@H](NC(=O)[C@H](Cc1ccccc1)NC(=O)[C@H](CCC(=O)O)NC(=O)[C@H]1CCC[C@@H]1NC(=O)[C@H](C)NC(=O)[C@H](C)NC(=O)[C@H](CCC(N)=O)NC(=O)[C@H]1CCC[C@@H]1NC(=O)[C@H](CCC(=O)O)NC(=O)[C@H](CC(C)C)NC(=O)[C@H](Cc1ccc(O)cc1)NC(=O)[C@H]1CCC[C@@H]1NC(=O)[C@H](CO)NC(=O)[C@@H](NC(=O)[C@H](CC(=O)O)NC(=O)[C@H](CO)NC(=O)[C@@H](NC(=O)[C@H](Cc1ccccc1)NC(=O)[C@@H](NC(=O)CNC(=O)[C@H](CCC(=O)O)NC(=O)[C@H](C)NC(=O)[C@@H](N)Cc1c[nH]cn1)[C@@H](C)O)[C@@H](C)O)C(C)C)C(=O)N[C@H]1CCC[C@@H]1C(=O)N[C@@H](Cc1c[nH]c2ccccc12)C(=O)N[C@@H](CC(C)C)C(=O)N[C@H](C(=O)N[C@H]1CCC[C@@H]1C(=O)NCC(=O)N[C@@H](CCCNC(=N)N)C(N)=O)C(C)C", "note": "[1b] (H-HAEGTFTSDVS[X1]YLE[X1]QAA[X1]EFI[X1]WLV[X1]GR-NH2; N-terminus assumed)", "values": [
      {"measurement": "Signal bias relative to GLP-1, in words", "setting": "[1]", "result": "biased toward β-arrestin-2 recruitment vs. cAMP production"}
    ]},
    {"smiles": "CC[C@H](C)[C@H](NC(=O)[C@H]1CCC[C@@H]1NC(=O)[C@H](CCC(=O)O)NC(=O)[C@H](CCCCN)NC(=O)[C@H](C)NC(=O)[C@H]1CCC[C@@H]1NC(=O)[C@H](CCC(N)=O)NC(=O)CNC(=O)[C@H](CCC(=O)O)NC(=O)[C@H]1CCC[C@@H]1NC(=O)[C@H](Cc1ccc(O)cc1)NC(=O)[C@H](CO)NC(=O)[C@H](CO)NC(=O)[C@@H](NC(=O)[C@H](CC(=O)O)NC(=O)[C@H](CO)NC(=O)[C@@H](NC(=O)[C@H](Cc1ccccc1)NC(=O)[C@@H](NC(=O)CNC(=O)[C@H](CCC(=O)O)NC(=O)[C@H](C)NC(=O)[C@@H](N)Cc1c[nH]cn1)[C@@H](C)O)[C@@H](C)O)C(C)C)C(=O)N[C@@H](C)C(=O)N[C@@H](Cc1c[nH]c2ccccc12)C(=O)N[C@H]1CCC[C@@H]1C(=O)N[C@H](C(=O)N[C@@H](CCCCN)C(=O)NCC(=O)N[C@H]1CCC[C@@H]1C(=O)NCC(N)=O)C(C)C", "note": "[3b] (H-HAEGTFTSDVSSY[X1]EGQ[X1]AKE[X1]IAW[X1]VKG[X1]G-NH2; N-terminus assumed)", "values": [
      {"measurement": "GLP-1R activation by cAMP production, in words", "setting": "[2]", "result": "no activation of the GLP-1R could be detected"},
      {"measurement": "β-arrestin-1 recruitment to the GLP-1R, in words", "setting": "[3]", "result": "inability to induce recruitment of either β-arrestin"},
      {"measurement": "β-arrestin-2 recruitment to the GLP-1R, in words", "setting": "[4]", "result": "inability to induce recruitment of either β-arrestin"}
    ]},
    {"smiles": "CC(C)C[C@H](NC(=O)[C@H](Cc1ccc(O)cc1)NC(=O)[C@H](CO)NC(=O)[C@H]1CCC[C@@H]1NC(=O)[C@@H](NC(=O)[C@H](CC(=O)O)NC(=O)[C@H](CO)NC(=O)[C@@H](NC(=O)[C@H](Cc1ccccc1)NC(=O)[C@@H](NC(=O)CNC(=O)[C@H](CCC(=O)O)NC(=O)[C@H](C)NC(=O)[C@@H](N)Cc1c[nH]cn1)[C@@H](C)O)[C@@H](C)O)C(C)C)C(=O)N[C@H]1CCC[C@@H]1C(=O)NCC(=O)N[C@@H](CCC(N)=O)C(=O)N[C@@H](C)C(=O)N[C@H]1CCC[C@@H]1C(=O)N[C@@H](CCCCN)C(=O)N[C@@H](CCC(=O)O)C(=O)N[C@@H](Cc1ccccc1)C(=O)N[C@H]1CCC[C@@H]1C(=O)N[C@@H](C)C(=O)N[C@@H](Cc1c[nH]c2ccccc12)C(=O)N[C@@H](CC(C)C)C(=O)N[C@H]1CCC[C@@H]1C(=O)N[C@@H](CCCCN)C(=O)NCC(=O)N[C@@H](CCCNC(=N)N)C(N)=O", "note": "[4b] (H-HAEGTFTSDV[X1]SYL[X1]GQA[X1]KEF[X1]AWL[X1]KGR-NH2; N-terminus assumed)", "values": [
      {"measurement": "Signal bias relative to GLP-1, in words", "setting": "[1]", "result": "balanced signaling behavior"}
    ]},
    {"smiles": "CC[C@H](C)[C@H](NC(=O)[C@H](Cc1ccccc1)NC(=O)C[C@H](CCC(=O)O)NC(=O)[C@H](CCCCN)NC(=O)[C@H](C)NC(=O)[C@H](C)NC(=O)C[C@H](CCC(N)=O)NC(=O)CNC(=O)[C@H](CCC(=O)O)NC(=O)[C@H](CC(C)C)NC(=O)C[C@H](Cc1ccc(O)cc1)NC(=O)[C@H](CO)NC(=O)[C@H](CO)NC(=O)[C@@H](NC(=O)[C@H](CC(=O)O)NC(=O)[C@H](CO)NC(=O)[C@@H](NC(=O)[C@H](Cc1ccccc1)NC(=O)[C@@H](NC(=O)CNC(=O)[C@H](CCC(=O)O)NC(=O)[C@H](C)NC(=O)[C@@H](N)Cc1c[nH]cn1)[C@@H](C)O)[C@@H](C)O)C(C)C)C(=O)N[C@@H](C)C(=O)N[C@H](CC(=O)N[C@@H](CC(C)C)C(=O)N[C@H](C(=O)N[C@@H](CCCCN)C(=O)NCCC(=O)N[C@@H](CCCNC(=N)N)C(N)=O)C(C)C)Cc1c[nH]c2ccccc12", "note": "[2a]", "values": [
      {"measurement": "Signal bias relative to GLP-1, in words", "setting": "[1]", "result": "modestly biased toward cAMP production relative to β-arrestin-1 recruitment"}
    ]}
  ]
}
